Data as given in US20200354426A1 (MEDIMMUNE LIMITED, priority 2016, published 2020).
Read-outs that look alike come from different tables or passages of the source. Numbered stars: 1 amine (or outer) side, 2 acyl side, 3 side chain; on linkers, the order of the positions; unused ones are H or OH. Side chains are listed from the residue outwards. Ends that are not written are not given here. Peptide text beside a SMILES is read from it. * marks the point of attachment. γGlu = O=C(O)[C@H](CCC(=O)[*:2])N[*:1]; Palmitoyl = CCCCCCCCCCCCCCCC(=O)*; Ahx = NCCCCCC(=O)O; βAla = NCCC(=O)O

Experiments:
Assay in all cases: cAMP activity assay in assay medium (assay 1)
Type in all cases: cell-based
Settings in all cases: Table 4
Human GlucR = biological target: T1, Human GlucR (Homo sapiens, UniProt P47871)
T1 construct: expressed in transfected cells
Excerpt: (§1) Biological Activity of Peptides in Cell-Based cAMP Activity Assay (Assay 1):
(§2) All sample dilutions were made in duplicate.

Human GIPr = biological target: T2, Human GIPr (Homo sapiens, UniProt P48546)
T2 construct: expressed in transfected cells
T2 sequence (P48546 22-466): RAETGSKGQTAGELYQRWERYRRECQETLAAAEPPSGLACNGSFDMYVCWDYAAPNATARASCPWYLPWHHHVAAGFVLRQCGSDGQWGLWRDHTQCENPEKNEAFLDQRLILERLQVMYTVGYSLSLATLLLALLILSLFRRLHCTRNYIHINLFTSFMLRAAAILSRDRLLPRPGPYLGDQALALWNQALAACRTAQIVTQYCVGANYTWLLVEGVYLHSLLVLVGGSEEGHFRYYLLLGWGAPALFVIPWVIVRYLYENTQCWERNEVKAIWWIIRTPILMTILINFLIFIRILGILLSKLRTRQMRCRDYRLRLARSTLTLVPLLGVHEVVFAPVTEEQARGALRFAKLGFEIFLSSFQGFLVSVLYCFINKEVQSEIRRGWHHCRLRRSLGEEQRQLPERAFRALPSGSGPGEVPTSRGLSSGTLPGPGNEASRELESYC
Excerpt: as §1, §2

Human GLP1R = Human GLP1R (Homo sapiens, UniProt P43220); design: expressed in transfected cells
Excerpt: as §1, §2

[1] = assay medium, read-out: hGlucR EC50
[2] = assay medium, read-out: hGIPR EC50
[3] = assay medium, read-out: hGLP1R EC50

Human GLP1R, sequence (P43220 24-463): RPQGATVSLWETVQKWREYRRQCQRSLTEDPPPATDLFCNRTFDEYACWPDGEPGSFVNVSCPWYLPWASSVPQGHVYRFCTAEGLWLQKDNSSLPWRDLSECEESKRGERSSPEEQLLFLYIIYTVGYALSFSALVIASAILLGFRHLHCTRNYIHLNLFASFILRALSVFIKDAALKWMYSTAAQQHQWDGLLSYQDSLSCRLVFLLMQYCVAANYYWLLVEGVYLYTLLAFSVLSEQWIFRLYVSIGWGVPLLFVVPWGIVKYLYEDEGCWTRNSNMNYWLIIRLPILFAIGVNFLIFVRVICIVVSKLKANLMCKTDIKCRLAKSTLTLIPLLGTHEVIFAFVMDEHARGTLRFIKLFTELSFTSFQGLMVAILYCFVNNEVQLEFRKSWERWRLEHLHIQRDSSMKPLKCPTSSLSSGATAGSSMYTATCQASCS
T1 sequence (P47871 26-477): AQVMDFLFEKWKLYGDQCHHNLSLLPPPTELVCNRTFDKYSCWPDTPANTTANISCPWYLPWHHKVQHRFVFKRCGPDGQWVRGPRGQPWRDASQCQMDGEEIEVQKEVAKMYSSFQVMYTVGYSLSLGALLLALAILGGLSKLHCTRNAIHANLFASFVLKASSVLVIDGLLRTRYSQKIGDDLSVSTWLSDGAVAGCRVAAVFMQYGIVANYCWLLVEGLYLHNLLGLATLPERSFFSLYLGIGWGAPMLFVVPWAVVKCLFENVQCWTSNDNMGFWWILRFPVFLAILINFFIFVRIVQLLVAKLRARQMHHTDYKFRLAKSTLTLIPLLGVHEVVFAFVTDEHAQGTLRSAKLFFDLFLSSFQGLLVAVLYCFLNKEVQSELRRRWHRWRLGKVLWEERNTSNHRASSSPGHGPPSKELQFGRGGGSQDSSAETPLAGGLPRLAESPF

| Compound | EC50 (Human GlucR; [1]) [nM] | EC50 (Human GIPr; [2]) [nM] | EC50 (Human GLP1R; [3]) [nM] | EC50 (Human GlucR; hGlucR EC50, assay medium) [nM] | EC50 (Human GIPr; hGIPR EC50, assay medium) [nM] | EC50 (Human GLP1R; hGLP1R EC50, assay medium) [nM] |
| --- | --- | --- | --- | --- | --- | --- |
| CCCCCCCCCCCCCCCC(=O)N[C@@H](CCC(=O)NCCCC[C@H](NC(=O)[C@H](CCCCN)NC(=O)[C@H](CO)NC(=O)[C@H](Cc1ccc(O)cc1)NC(=O)[C@H](CC(=O)O)NC(=O)[C@H](CO)NC(=O)[C@@H](NC(=O)[C@H](Cc1ccccc1)NC(=O)[C@@H](NC(=O)CNC(=O)[C@H](CCC(N)=O)NC(=O)[C@H](CO)NC(=O)[C@@H](N)Cc1c[nH]cn1)[C@@H](C)O)[C@@H](C)O)C(=O)N[C@@H](CC(C)C)C(=O)N[C@@H](CC(=O)O)C(=O)N[C@@H](CO)C(=O)N[C@@H](CCC(=O)O)C(=O)N[C@@H](CCCNC(=N)N)C(=O)N[C@@H](C)C(=O)N[C@@H](CCC(N)=O)C(=O)N[C@@H](CC(=O)O)C(=O)N[C@@H](Cc1ccccc1)C(=O)N[C@H](C(=O)N[C@@H](CCC(N)=O)C(=O)N[C@@H](Cc1c[nH]c2ccccc12)C(=O)N[C@@H](CC(C)C)C(=O)N[C@H](C(=O)N[C@@H](C)C(=O)NCC(=O)NCC(N)=O)C(C)C)C(C)C)C(=O)O [g729] (H-HSQGTFTSDYSKK([γGlu-Palmitoyl])LDSERAQDFVQWLVAGG-NH2) | – | – | – | 0.0319 | 209 | 0.0729 |
| CCCCCCCCCCCCCCCC(=O)NCCCC[C@H](NC(=O)CNC(=O)CNC(=O)CNC(=O)CNC(=O)CNC(=O)CNC(=O)[C@H](CCCNC(=N)N)NC(=O)[C@@H](NC(=O)[C@H](CC(C)C)NC(=O)[C@H](Cc1c[nH]c2ccccc12)NC(=O)[C@H](CCC(N)=O)NC(=O)[C@@H](NC(=O)[C@H](Cc1ccccc1)NC(=O)[C@H](CC(=O)O)NC(=O)[C@H](CCC(N)=O)NC(=O)[C@H](C)NC(=O)[C@H](CCCNC(=N)N)NC(=O)[C@H](CCCNC(=N)N)NC(=O)[C@H](CO)NC(=O)[C@H](CC(=O)O)NC(=O)[C@H](CC(C)C)NC(=O)[C@H](Cc1ccc(O)cc1)NC(=O)[C@H](CCCCN)NC(=O)[C@H](CO)NC(=O)[C@H](Cc1ccc(O)cc1)NC(=O)[C@H](CC(=O)O)NC(=O)[C@H](CO)NC(=O)[C@@H](NC(=O)[C@H](Cc1ccccc1)NC(=O)[C@@H](NC(=O)CNC(=O)[C@H](CCC(N)=O)NC(=O)[C@H](CO)NC(=O)[C@@H](N)Cc1c[nH]cn1)[C@@H](C)O)[C@@H](C)O)C(C)C)C(C)C)C(N)=O [g326] | 0.00282 | 12.6 | 0.0247 | – | – | – |
| CC(C)C[C@H](NC(=O)[C@H](Cc1ccc(O)cc1)NC(=O)[C@H](CCCCN)NC(=O)[C@H](CO)NC(=O)[C@H](Cc1ccc(O)cc1)NC(=O)[C@H](CC(=O)O)NC(=O)[C@H](CO)NC(=O)[C@@H](NC(=O)[C@H](Cc1ccccc1)NC(=O)[C@@H](NC(=O)CNC(=O)[C@H](CCC(N)=O)NC(=O)[C@H](CO)NC(=O)[C@@H](N)Cc1c[nH]cn1)[C@@H](C)O)[C@@H](C)O)C(=O)N[C@@H](CC(=O)O)C(=O)N[C@@H](CO)C(=O)N[C@@H](CCCNC(=N)N)C(=O)N[C@@H](CCCNC(=N)N)C(=O)N[C@@H](C)C(=O)N[C@@H](CCC(N)=O)C(=O)N[C@@H](CC(=O)O)C(=O)N[C@@H](Cc1ccccc1)C(=O)N[C@H](C(=O)N[C@@H](CCC(N)=O)C(=O)N[C@@H](Cc1c[nH]c2ccccc12)C(=O)N[C@@H](CC(C)C)C(=O)N[C@H](C(=O)N[C@@H](CCCNC(=N)N)C(=O)NCC(=O)NCC(=O)NCC(=O)NCC(=O)NCC(=O)NCC(N)=O)C(C)C)C(C)C [g315] | 0.00504 | 19.7 | 0.0273 | – | – | – |
| CCCCCCCCCCCCCCCC(=O)NCCCCCC(=O)NCCCC[C@H](NC(=O)[C@H](CO)NC(=O)[C@H](CC(=O)O)NC(=O)[C@H](CC(C)C)NC(=O)[C@H](Cc1ccc(O)cc1)NC(=O)[C@H](CCC(=O)O)NC(=O)[C@H](CO)NC(=O)[C@H](Cc1ccc(O)cc1)NC(=O)[C@H](CC(=O)O)NC(=O)[C@H](CO)NC(=O)[C@@H](NC(=O)[C@H](Cc1ccccc1)NC(=O)[C@@H](NC(=O)CNC(=O)[C@H](CCC(N)=O)NC(=O)[C@H](CO)NC(=O)[C@@H](N)Cc1c[nH]cn1)[C@@H](C)O)[C@@H](C)O)C(=O)N[C@@H](CCCNC(=N)N)C(=O)N[C@@H](C)C(=O)N[C@@H](CCCNC(=N)N)C(=O)N[C@@H](CC(=O)O)C(=O)N[C@@H](Cc1ccccc1)C(=O)N[C@H](C(=O)N[C@@H](CCC(=O)O)C(=O)N[C@@H](Cc1c[nH]c2ccccc12)C(=O)N[C@@H](CC(C)C)C(=O)N[C@@H](CCC(=O)O)C(=O)N[C@@H](CCCNC(=N)N)C(=O)NCC(=O)NCC(N)=O)C(C)C [g771] (H-HSQGTFTSDYSEYLDSK([Ahx-Palmitoyl])RARDFVEWLERGG-NH2; N-terminus assumed) | 0.00551 | 37.1 | 0.0175 | – | – | – |

More lines, main results first:

| EC50 (Human GlucR; [1]) [nM] | EC50 (Human GIPr; [2]) [nM] | EC50 (Human GLP1R; [3]) [nM] | Compound | EC50 (Human GlucR; hGlucR EC50, assay medium) [nM] | EC50 (Human GIPr; hGIPR EC50, assay medium) [nM] | EC50 (Human GLP1R; hGLP1R EC50, assay medium) [nM] |
| --- | --- | --- | --- | --- | --- | --- |
| 0.0279 | 6.41 | 0.0272 | HSQGTFTSDYSKYLDSRRAQDFVQWLVRGGKNNRNNIAK-NH2 [g321] | – | – | – |
| 0.11 | 579 | 0.0734 | CCCCCCCCCCCCCCCC(=O)NCCC(=O)NCCCC[C@H](NC(=O)[C@H](CO)NC(=O)[C@H](CC(=O)O)NC(=O)[C@H](CC(C)C)NC(=O)[C@H](Cc1ccc(O)cc1)NC(=O)[C@H](CCC(=O)O)NC(=O)[C@H](CO)NC(=O)[C@H](Cc1ccc(O)cc1)NC(=O)[C@H](CC(=O)O)NC(=O)[C@H](CO)NC(=O)[C@@H](NC(=O)[C@H](Cc1ccccc1)NC(=O)[C@@H](NC(=O)CNC(=O)[C@H](CCC(N)=O)NC(=O)[C@H](CO)NC(=O)[C@@H](N)Cc1c[nH]cn1)[C@@H](C)O)[C@@H](C)O)C(=O)N[C@@H](CCCNC(=N)N)C(=O)N[C@@H](C)C(=O)N[C@@H](CCCNC(=N)N)C(=O)N[C@@H](CC(=O)O)C(=O)N[C@@H](Cc1ccccc1)C(=O)N[C@H](C(=O)N[C@@H](C)C(=O)N[C@@H](Cc1c[nH]c2ccccc12)C(=O)N[C@@H](CC(C)C)C(=O)N[C@@H](CCC(=O)O)C(=O)N[C@@H](CCCNC(=N)N)C(=O)NCC(=O)NCC(N)=O)C(C)C [g795] (H-HSQGTFTSDYSEYLDSK([βAla-Palmitoyl])RARDFVAWLERGG-NH2; N-terminus assumed) | – | – | – |
| 0.0155 | 100 | 0.124 | CCCCCCCCCCCCCCCC(=O)N[C@@H](CCC(=O)NCCCC[C@H](NC(=O)[C@H](Cc1ccc(O)cc1)NC(=O)[C@H](CCCCN)NC(=O)[C@H](CO)NC(=O)[C@H](Cc1ccc(O)cc1)NC(=O)[C@H](CC(=O)O)NC(=O)[C@H](CO)NC(=O)[C@@H](NC(=O)[C@H](Cc1ccccc1)NC(=O)[C@@H](NC(=O)CNC(=O)[C@H](CCC(N)=O)NC(=O)[C@H](CO)NC(=O)[C@@H](N)Cc1c[nH]cn1)[C@@H](C)O)[C@@H](C)O)C(=O)N[C@@H](CC(=O)O)C(=O)N[C@@H](CO)C(=O)N[C@@H](CCC(=O)O)C(=O)N[C@@H](CCCNC(=N)N)C(=O)N[C@@H](C)C(=O)N[C@@H](CCCNC(=N)N)C(=O)N[C@@H](CC(=O)O)C(=O)N[C@@H](Cc1ccccc1)C(=O)N[C@H](C(=O)N[C@@H](CCC(=O)O)C(=O)N[C@@H](Cc1c[nH]c2ccccc12)C(=O)N[C@@H](CC(C)C)C(=O)N[C@@H](CCC(=O)O)C(=O)N[C@@H](C)C(=O)NCC(=O)NCC(N)=O)C(C)C)C(=O)O [g836] (H-HSQGTFTSDYSKYK([γGlu-Palmitoyl])DSERARDFVEWLEAGG-NH2; N-terminus assumed) | – | – | – |
